Measured values published in patent US6387605B1, “Co-developers for black-and-white photothermographic elements” (Eastman Kodak Company, priority 1999, dated 2002).

Experiment: Solubility of co-developers in coating solvents (Example 5)
Type: physicochemical
Method: Solubility of Co-developers: In order for the co-developer to perform effectively, some quantity of the co-developer must be soluble in the coating solvent for the emulsion layer or topcoat layer. 2-Butanone MEK) and methanol are typical solvents for these layers. Solubility will vary depending on the structure of the co-developer, the composition of the layer containing the co-developer, and the solvents employed.
The photothermographic elements of this invention typically require from 10 mg to 100 mg of co-developer in 40 g of photothermographic emulsion in 25 g 2-butanone in order to achieve high contrast. The photothermographic emulsions are held at 50° F. (10° C.). As this is below room temperature, the solubility is below that of the co-developer at room temperature.
The solubility of co-developer CI-03 in 25 g of 2-butanone (MEK) and in 25 g of methanol was determined.

Compound: O=C1NC(=O)C(=CO)C(=O)N1 [CI-03, 5-(Hydroxymethylone)-2,4,5(1H3H,5H)-pyrimdine-trione]
- Solubility in MEK (2.5 mg in 25 g 2-butanone, room temperature): Soluble at room temperature.
- Solubility in MEK (5.0 mg in 25 g 2-butanone, 90° F. (32° C.)): Soluble at 90° F. (32° C.).
- Solubility in MEK (5.0 mg in 25 g 2-butanone, room temperature): Insoluble at room temperature.
- Solubility in MeOH (5 mg in 25 g methanol, room temperature): Soluble at room temperature.
- Solubility in MEK (12.5 mg in 25 g 2-butanone, 90° F. (32° C.)): Insoluble at 90° F. (32° C.).
- Solubility in MeOH (12.5 mg in 25 g methanol, 90° F. (32° C.)): Soluble at 90° F. (32° C.).
- Solubility in MeOH (12.5 mg in 25 g methanol, room temperature): Insoluble at room temperature.
- Solubility in MEK (25 mg in 25 g 2-butanone, 90° F. (32° C.)): Insoluble at 90° F. (32° C.).
- Solubility in MeOH (25 mg in 25 g methanol, 90° F. (32° C.)): Soluble at 90° F. (32° C.).
- Solubility in MeOH (25 mg in 25 g methanol, room temperature): Insoluble at room temperature.
- Solubility in organic solvents (Example 1, sample 1-28): Compound CI-03 was insoluble in organic solvents.
